Earlier results as cited in patent US20040091555A1 (priority 2003, published 2004).

System: hepatocellular carcinoma
Settings: phase II clinical trials, patients with hepatocellular carcinoma

CC(=O)O[C@H]1C(=O)[C@@]2(C)[C@H]([C@H](OC(=O)c3ccccc3)[C@]3(O)C[C@H](OC(=O)[C@H](O)[C@@H](NC(=O)c4ccccc4)c4ccccc4)C(C)=C1C3(C)C)[C@]1(OC(C)=O)CO[C@@H]1C[C@@H]2O [paclitaxel]
efficacy on hepatocellular carcinoma: no significant efficacy on hepatocellular carcinoma
